Tested on: Fibroblast
Experiment: Incucyte cell viability with human fibroblast; also: filed as whole numbers so only -1 and 0 and 1 occur
Type: toxicity, cell-based
Settings: 10 µM, compound concentration 10 uM
[1] = 0 h, replicate number 1, timepoint 0 hours
[2] = 18 h, replicate number 1, timepoint 18 hours
[3] = 24 h, replicate number 1, timepoint 24 hours
[4] = 0 h, replicate number 2, timepoint 0 hours
[5] = 6 h, replicate number 1, timepoint 6 hours
[6] = 12 h, replicate number 1, timepoint 12 hours
[7] = 6 h, replicate number 2, timepoint 6 hours
[8] = 12 h, replicate number 2, timepoint 12 hours
[9] = 18 h, replicate number 2, timepoint 18 hours
[10] = 24 h, replicate number 2, timepoint 24 hours

SMILES	Growth Rate [1]	Growth Rate [2]	Growth Rate [3]	Growth Rate [4]	Growth Rate [5]	Growth Rate [6]	Growth Rate [7]	Growth Rate [8]	Growth Rate [9]	Growth Rate [10]
O=C(Nc1ccc(-c2ccnc(Nc3ccc(N4CCOCC4)cc3)n2)cc1)[C@@H]1CCCN1	0	1	0							
CCc1cccc(CC)c1NC(=O)c1nn(C)c2c1CCc1cnc(Nc3ccc(N4CCN(C)CC4)cc3OC)nc1-2		0	0	1	0	0				
Cl.O=C(c1ccc(Nc2nccc(-c3cc4ccccc4s3)n2)cc1)N1CCC(N2CCCC2)CC1	0	0	0		0	0				
CN(C)C(=O)C(CCN1CCC(O)(c2ccc(Cl)cc2)CC1)(c1ccccc1)c1ccccc1.Cl [LOPERAMIDE HYDROCHLORIDE]		0	0		0	0				
C=C1/C(=C\C=C2/CCC[C@]3(C)[C@@H]([C@H](C)/C=C/[C@H](C)C(C)C)CC[C@@H]23)C[C@@H](O)C[C@@H]1O [DOXERCALCIFEROL]	0	1	0			1	0	0	0	
O=C1NC(=O)C(c2cnc3ccccn23)=C1c1cn2c3c(cc(F)cc13)CN(C(=O)N1CCCCC1)CC2 [LY-2090314]		0	0	1	0	0				
CNc1cc(Oc2cc(C(=O)Nc3cc(N4CCN(C)CC4)cc(C(F)(F)F)c3)ccc2C)ncn1	0	0	0		0	0				
COc1ccc(-c2ccc3c(N4CCOCC4)nc(N4C[C@@H](C)O[C@@H](C)C4)nc3n2)cc1CO [Ku-0063794]	1	1	0			1	1	0	0	
Cc1cn(-c2cc(NC(=O)c3ccc(C)c(Nc4nccc(-c5cccnc5)n4)c3)cc(C(F)(F)F)c2)cn1 [NILOTINIB]	0	0	0		0	0				
CCN1CCN(c2ccc(Nc3cc(N(C)C(=O)Nc4c(Cl)c(OC)cc(OC)c4Cl)ncn3)cc2)CC1 [INFIGRATINIB]	0	0	0		1	1				
Cl.O=c1c2cccn2c2ccccc2n1CCCN1CCC(c2ccc(Cl)cc2)CC1	1	0	0		0	0				
COCC(=O)NC/C=C/c1ccc2ncnc(Nc3ccc(Oc4ccc(C)nc4)c(C)c3)c2c1 [CP-724714]	0	1	1			1	1	0	0	0
COc1cc(N2CCC(N3CCN(C)CC3)CC2)ccc1Nc1ncnc(Nc2ccccc2S(=O)(=O)C(C)C)n1 [ASP-3026]		0	0	0	0	0				
C=CCn1c(=O)c2cnc(Nc3ccc(N4CCN(C)CC4)cc3)nc2n1-c1cccc(C(C)(C)O)n1 [ADAVOSERTIB]	0	0	0		0	0				
CN1CCC(=C2c3ccccc3CC(=O)c3sccc32)CC1.O=C(O)/C=C/C(=O)O [KETOTIFEN FUMARATE]	0	0	0		0	0				
Cl.Oc1ccc2c3c1O[C@H]1c4[nH]c5c(c4C[C@@]4(O)[C@@H](C2)N(CC2CC2)CC[C@]314)C[C@@]1(O)[C@H]2Cc3ccc(O)c4c3[C@@]1(CCN2CC1CC1)[C@H]5O4	0	0	0	1	0	0		1		1
CN1C2CCC1CC(OC(c1ccc(F)cc1)c1ccc(F)cc1)C2.Cl (stereo not given)		1	0		1	1	0	0	0	
COC(=N)c1nc2ccc3ncnc(Nc4ccc(OC)cc4F)c3c2s1	0	1	0			1				
O=C1N/C(=N/c2ccccc2F)S/C1=C\c1ccc(C(=O)O)cc1			0							
COc1cc2ncnc(Nc3ccc(F)c(Cl)c3)c2cc1NC(=O)/C=C/CN1CCCCC1 [DACOMITINIB ANHYDROUS]		0	0	1	0	0				
Cn1nc(C(F)(F)F)cc1-c1cnc(N2CCc3cc(S(=O)(=O)Nc4c(F)cc(Cl)cc4F)cc(N4CCCC4=O)c32)nc1 [TP-020]	0	1	0		1	0		1	0	
CCc1cccc(CC)c1NC(=O)c1nn(C)c2c1CCc1cnc(Nc3ccc(C(=O)NC4CCN(C)CC4)cc3OC(F)(F)F)nc1-2	0	0	0		1	0				1
O=C(Cc1ccc(-c2ccc(OCCN3CCOCC3)cc2)cn1)NCc1ccccc1 [TIRBANIBULIN]		0	0		0	0				

SMILES	Growth Rate [1]	Growth Rate [2]	Growth Rate [3]	Growth Rate [4]	Growth Rate [5]	Growth Rate [6]	Growth Rate [7]	Growth Rate [8]	Growth Rate [9]	Growth Rate [10]
CN1CCN(C(=O)C(C)(C)c2ccc(C(=O)Nc3cn4cc(-c5cc(C(C)(C)C)cc(C(C)(C)C)c5)ccc4n3)cc2)CC1 [T3-CLK-N]		1	1	0						
S=C(NCCCc1c[nH]cn1)NCCCN(Cc1ccc(Cl)c(Cl)c1)c1ccc(Br)cn1	0	0	0		0	0				
CCn1cc(-c2ccnc3[nH]c(-c4cccc(CN(C)C)c4)cc23)c(-c2ccc(NC(=O)N(C)C)cc2)n1 [GSK-1070916]	0	0	0		1	0		1		
CCN1CCN(Cc2ccc(Nc3ncc(F)c(-c4cc(F)c5nc(C)n(C(C)C)c5c4)n3)nc2)CC1.CS(=O)(=O)O	0	1	0							1
O=C(Nc1cccnn1)N1CCC(=Cc2cccc(Oc3ccc(C(F)(F)F)cn3)c2)CC1	0	0	0		0	0				1
CN([C@@H](Cc1ccc(OS(=O)(=O)c2cccc3cnccc23)cc1)C(=O)N1CCN(c2ccccc2)CC1)S(=O)(=O)c1cccc2cnccc12	1	1	0			1	0	0		1
CCCS(=O)(=O)Nc1ccc(F)c(C(=O)c2c[nH]c3ncc(Cl)cc23)c1F [PLX-4720]	1	0	0	0	0	0				
CCn1c(=O)c(-c2ccc(-c3cncs3)cc2Cl)cc2cnc(Nc3ccc(N4CCN(C)CC4)cc3)nc21	0	1	0							
COc1cc(N2CCN(C)CC2)ccc1Nc1ncc2c(n1)N(C)c1ccccc1C(=O)N2C	0	1	1			0				
Cc1ccc(C(=O)Nc2cccc(C(F)(F)F)c2)cc1Nc1nc(-c2cccnc2)nc2c1cnn2C		0	0		0	0				
NC(=O)c1cccc(-c2cc(Nc3ccc(OC(F)(F)F)cc3)ncn2)c1	1	0	0	0	0	0	1	1	1	1
O=C(Nc1ccc(-n2nc(-c3cccnc3)cc2C(F)(F)F)cn1)c1ccc(-c2ccccc2)c(F)c1 [BI 2049]	0	0	0		0	0				
CNC(=O)c1ccc(Nc2nc(OC3CCCC3)c3c(-c4ccc5nc(C)oc5c4)c[nH]c3n2)c(OC)c1	0	0	0			0	0			
COc1ccc(S(=O)(=O)N(CCO)c2ccccc2CN(C)C/C=C/c2ccc(Cl)cc2)cc1.O=P(O)(O)O		0	0	1	0	0	1			
CCNc1cc(N[C@H]2CC[C@H](O)CC2)nc(Nc2ccc3c(ccn3Cc3ccccc3)c2)n1		0	0		0	0				
CCOC(=O)c1c(C)[nH]c2ccc3c(c12)CN1CCc2cc(OC)ccc2C1O3 (stereo not given)		0	0		0	0				
Cc1ccc2nc(NCCN)c3ncc(C)n3c2c1.O=C(O)C(F)(F)F.O=C(O)C(F)(F)F		0	0	0	0	0				
O=C(Nc1ccc(Cl)cc1)Nc1cccc(-c2cccc(N3CCCC3)n2)c1	0	0	0		0	0				
COc1cccc2cc(-c3nc([C@H]4CC[C@H](C(=O)O)CC4)n4ncnc(N)c34)[nH]c12 [OSI-027]	0	0	0			0		1		
CCOc1cc(C(=O)N2CCC(N3CCN(C)CC3)CC2)ccc1Nc1ncc2c(n1)N(C1CCCC1)c1ccccc1C(=O)N2C		0	0	0	1	0			1	1
CCCn1c(=O)c2[nH]c(-c3cnn(Cc4cccc(C(F)(F)F)c4)c3)nc2n(CC)c1=O [GS 6201]	0	1	1							
CCCS(=O)(=O)c1nc(NC2CC2)cc(-c2ccc3c(ccn3C3CC(C)(C)NC(C)(C)C3)c2)n1	0	0	0		0	0			1	
Cc1cc(C)c(S(=O)(=O)N(Cc2ccc(-c3cccc(S(C)(=O)=O)c3)cc2)Cc2ccc(C(F)(F)F)o2)c(C)c1	1	0	0	0	1	0				

— ChEMBL document CHEMBL4689842, “EUbOPEN Chemogenomics Library wave 1” (2021)
